# Assay results from patent US20250073180A1, “COMPOSITIONS COMPRISING NON-RACEMIC MIXTURES OF R- AND S-1,3-BUTANEDIOL AND USES THEREOF” (priority 2022, published 2025).
# What was measured:
# [1] = 25 g/day for 28 consecutive days; cited from earlier work
# [2] = system: human subjects; assay: Biphasic Alcohol Effects Scale (BAES) questionnaire, acute pilot consumer study; assay type: in vivo; details: 60 minutes following consumption of 20 g in a beverage; n=3 per group
# Experimental: (§1) Two scales were utilized: subjective effects with Biphasic Alcohol Effects Scale (BAES), a validated tool to measure the effects of drinking alcohol (Martin, C. S., et al. 1993. Alcoholism, Clinical and Experimental Research 17 (1): 140-46), and GI Tolerance with a Modified Beverage Tolerability Questionnaire (m-BTQ; Chen., 0. T., et al. 2021. Nutrients 13 (6): 2066). Participants were asked to fast for at least 2 hours before consuming the product, and complete the m-BTQ and BAES at 60 minutes following the consumption of the product.
# (§2) The study population was 6 individuals between 25-40 years old. Questionnaires for the m-BTQ and BAES are provided below in Tables 1 and 2.
# (§3) The six participants were between 25-40 years old, were 100% Caucasian and all (100%) identified as male.
# [3] = system: human subjects; assay: Modified Beverage Tolerability Questionnaire (m-BTQ), acute pilot consumer study; assay type: in vivo
# Experimental: as §1, §2, §3
# [4] = system: dogs; details: dietary levels of 0.5, 1.0 and 3.0% for two years; cited from earlier work
# [5] = ECHA registration dossiers; cited from earlier work
# [6] = system: human volunteers; details: bolus doses of 0.5 g/kg bw or 0.7 g/kg bw; cited from earlier work
# [7] = system: rats; details: dietary levels of 1.0, 3.0 and 10% for two years; cited from earlier work
structure (smiles),measurement,setting,value
"CCCCCC(=O)OCC[C@@H](C)OC(=O)CCCCC [BH-BD, bis-hexanoyl (R)-1,3-butanediol]",Side effects and adverse events,[1],only mild side effects and no adverse events
"C[C@@H](O)CCO [R-1,3-butanediol]",Mean BAES-SED Composite Score,[2],22.3
same,Mean BAES-STIM Composite Score,[2],41.7
same,Mean Composite Tolerability Score (m-BTQ),"[3]; 60 minutes following consumption of 20 g in a beverage, fasted at least 2 hours, n=3 per group",8
same,Tolerability (in words),"[3]; acute use, 20 g beverage, all participants",well tolerated by all participants
"CC(O)CCO (stereo not drawn) [1,3-butanediol]",Adverse effects attributable to ingestion,[4],no adverse effects attributable to the ingestion
same,"Acute oral, inhalation and dermal toxicity",[5],low
same,Side effects of bolus doses,[6],"nausea, euphoria and dizziness"
same,Adverse effects attributable to ingestion,[7],no adverse effects attributable to the ingestion
